The values that follow come from PMC2723721 (Bioorganic & medicinal chemistry, 2009).

In the assay the target is p47phox (Homo sapiens, UniProt P14598). The assay is described as follows: ELISA: his-p47phox binding to immobilized biotin-p22phox peptide with […] IAA. The format is biochemical. For orientation: In an ELISA, binding on a coated surface is turned into a signal by an enzyme label.

Each structure is given as a SMILES string. Where only a bound is given, the exact number is not on record here.

Sequence of p47phox (P13498 2-195): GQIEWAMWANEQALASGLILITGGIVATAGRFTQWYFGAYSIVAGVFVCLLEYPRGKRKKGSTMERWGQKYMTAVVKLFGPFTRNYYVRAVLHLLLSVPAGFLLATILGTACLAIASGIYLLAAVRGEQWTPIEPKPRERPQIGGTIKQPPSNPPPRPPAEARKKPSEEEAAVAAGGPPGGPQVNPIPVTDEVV
Sequence of p47phox (P14598 whole entry): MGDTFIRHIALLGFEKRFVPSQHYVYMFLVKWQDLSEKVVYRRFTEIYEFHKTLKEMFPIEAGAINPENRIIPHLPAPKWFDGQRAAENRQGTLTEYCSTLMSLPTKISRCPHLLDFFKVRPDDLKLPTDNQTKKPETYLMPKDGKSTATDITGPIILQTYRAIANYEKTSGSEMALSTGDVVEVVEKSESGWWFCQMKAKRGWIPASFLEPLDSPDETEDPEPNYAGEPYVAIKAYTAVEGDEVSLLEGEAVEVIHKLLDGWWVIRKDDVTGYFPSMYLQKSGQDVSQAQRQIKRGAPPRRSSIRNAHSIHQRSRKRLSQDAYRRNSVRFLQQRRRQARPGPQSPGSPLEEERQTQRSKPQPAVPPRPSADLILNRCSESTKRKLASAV

In the case of `NC(=O)CI` [IAA, iodoacetamide], the “% drop in bound p47phox at 1 μM” value is listed as > 50 % drop in bound p47phox at 1 μM.
